Test results reported in US20070191397A1, “Fungicidal mixtures based on oxime ether derivatives” (priority 2004, published 2007).

Key:
[1] = tested on: Erysiphe [syn. Blumeria] graminis form a specialis tritici; assay: Activity against mildew of wheat caused by Erysiphe [syn. Blumeria] graminis forma specialis tritici; format: in vivo
Protocol: (§1) The active compounds, separately or jointly, were prepared as a stock solution with 0.25% by weight of active compound in acetone or DMSO. 1% by weight of the emulsifier Uniperol® EL (wetting agent having emulsifying and dispersing action based on ethoxylated alkylphenols) was added to this solution, and the solution was diluted with water to the desired concentration.
(§2) Evaluation was carried out by determining the infected leaf areas in percent. These percentages were converted into efficacies. The efficacy (E) is calculated as follows using Abbot's formula: E=(1−α/β)·100 α corresponds to the fungicidal infection of the treated plants in % and β corresponds to the fungicidal infection of the untreated (control) plants in %
(§3) An efficacy of 0 means that the infection level of the treated plants corresponds to that of the untreated control plants; an efficacy of 100 means that the treated plants were not infected.
(§4) The expected efficacies of the mixtures of active compounds are determined using Colby's formula [R.S. Colby, Weeds 15, 20-22 (1967)] and compared with the observed efficacies. Colby's formula: E=x+y−x·y/100 E expected efficacy, expressed in % of the untreated control, when using the mixture of the active compounds A and B at the concentrations a and b x efficacy, expressed in % of the untreated control, when using active compound A at the concentration a y efficacy, expressed in % of the untreated control, when using active compound B at the concentration b
Leaves of wheat seedlings of the cultivar “Kanzler” grown in pots, were sprayed to runoff point with an aqueous suspension having the concentration of active compounds stated below. 24 hours after the spray coating had dried on, dusted with spores of mildew of wheat (Erysiphe [syn. Blumeria] graminis form a specialis tritici). The test plants were then placed in a greenhouse at 20-24° C. and 60-90% relative atmospheric humidity. After 7 days, the extent of the mildew development was determined visually in % infection of the entire leaf area.

[2] = tested on: Puccinia recondita; assay: Curative action against brown rust of wheat caused by Puccinia recondita; format: in vivo; conditions: wheat cultivar Kanzler, 7 days
Protocol: as §1, §2, §3, §4
Leaves of wheat seedlings of the cultivar “Kanzler”, grown in pots, were dusted with spores of brown rust (Puccinia recondita). The pots were then placed in the chamber with high atmospheric humidity (90-95%), at 20-22° C., for 24 hours. During this time the spores germinated and the germinal tubes penetrated into the leaf tissue. The next day, the infected plants were sprayed to runoff point with an aqueous suspension having the concentration of active compounds stated below. After the spray coating had dried on, the test plants were cultivated in a greenhouse at 20-22° C. and 65-70% relative atmospheric humidity for 7 days. Thereafter, the extent of the rust fungus development on the leaves was determined.

SMILES | Efficacy in % of the untreated control ([1]; 0.25 ppm) [%] | Efficacy in % of the untreated control ([2]; 0.06 ppm in the spray liquor) [%] | Efficacy in % of the untreated control ([2]; 0.25 ppm in the spray liquor) [%] | Efficacy in % of the untreated control ([2]; 1 ppm in the spray liquor) [%] | Efficacy in % of the untreated control ([1]; 0.25 ppm in the spray liquor, wheat cultivar Kanzler, sprayed 24 h before inoculation, 7 days) [%] | Efficacy in % of the untreated control ([1]; 1 ppm in the spray liquor, wheat cultivar Kanzler, sprayed 24 h before inoculation, 7 days) [%] | Efficacy in % of the untreated control ([1]; 4 ppm in the spray liquor, wheat cultivar Kanzler, sprayed 24 h before inoculation, 7 days) [%] | Efficacy in % of the untreated control ([2]; 4 ppm in the spray liquor) [%]
O=C(Cc1ccccc1)N/C(=N\OCC1CC1)c1c(C(F)(F)F)ccc(F)c1F [II.1] | 70 |  |  |  |  |  |  | 
O=C(Cc1ccccc1)N/C(=N\OCC1CC1)c1c(OC(F)F)ccc(F)c1F [II.14] |  | 0 | 0 | 0 |  |  |  | 
CC1CCN(c2c(-c3c(F)cc(F)cc3F)c(Cl)nc3ncnn23)CC1 [I, 5-chloro-7-(4-methylpiperidin-1-yl)-6-(2,4,6-trifluoro-phenyl)-[1,2,4]triazolo[1,5-a]pyrimidine] |  |  |  | 0 | 0 | 9 | 60 | 89
